# Like-named read-outs stand apart in the source and are kept apart here.
# Columns and labels:
# SARS-CoV-2 M^Pro [1] = biological target: T1, SARS-CoV-2 M^Pro (Severe acute respiratory syndrome coronavirus 2, UniProt P0DTD1); settings: read-out: IC50 against M^Pro; previously published inhibitors; cited from earlier work
# [2] = biological target: M^Pro-eGFP fusion protein transiently expressed in 293T cells (Severe acute respiratory syndrome coronavirus 2, UniProt P0DTD1); type: cell-based, SARS-CoV-2; settings: read-out: Cellular EC50
# SARS-CoV-2 M^Pro [3] = biological target: T1, SARS-CoV-2 M^Pro; experiment: In vitro M^Pro inhibition potency (enzymatic IC50, fluorogenic substrate Sub3); type: biochemical; settings: 20 nM M^Pro, 10 μM Sub3, 30 min preincubation, pH 7.6
SMILES,IC50 (SARS-CoV-2 M^Pro [1]),EC50 [2],IC50 (SARS-CoV-2 M^Pro [3])
CC(C)(C)C[C@H](NC(=O)OCc1ccccc1)C(=O)N[C@H](C=O)C[C@@H]1CCNC1=O [MPI50],53 nM,–,–
CC1(C)[C@@H]2[C@@H](C(=O)N[C@H](C=O)C[C@@H]3CCNC3=O)N(C(=O)OC(c3ccccc3)c3ccccc3)C[C@@H]21 [MPI94],–,900 nM,–
CC1(C)[C@@H]2[C@@H](C(=O)N[C@H](C=O)C[C@@H]3CCNC3=O)N(C(=O)OC(c3ccc(F)cc3)c3ccc(F)cc3)C[C@@H]21 [MPI95],–,910 nM,–
CC1(C)[C@@H]2[C@@H](C(=O)N[C@H](C=O)C[C@@H]3CCNC3=O)N(C(=O)C(c3ccc(Cl)cc3)c3ccc(Cl)cc3)C[C@@H]21 [MPI96],–,2900 nM,–
CC1(C)[C@@H]2[C@@H](C(=O)N[C@H](C=O)C[C@@H]3CCNC3=O)N(C(=O)N(c3ccc(Cl)cc3)c3ccc(Cl)cc3)C[C@@H]21 [MPI97],–,1100 nM,–
CC1(C)[C@@H]2[C@@H](C(=O)N[C@H](C=O)C[C@@H]3CCNC3=O)N(C(=O)C(Oc3ccc(Cl)cc3)Oc3ccc(Cl)cc3)C[C@@H]21 [MPI98],–,490 nM,–
CC1(C)[C@@H]2[C@@H](C(=O)N[C@H](C=O)C[C@@H]3CCNC3=O)N(C(=O)[C@H](Cc3ccccc3)NC(=O)OCc3ccccc3)C[C@@H]21 [MPI99],–,> 5000 nM,270 nM
CC1(C)[C@@H]2[C@@H](C(=O)N[C@H](C=O)C[C@@H]3CCNC3=O)N(C(=O)[C@H](CC3CCCCC3)NC(=O)OCc3ccccc3)C[C@@H]21 [MPI100],–,140 nM,–
CC(C)(C)C[C@H](NC(=O)OCc1cccnc1)C(=O)N[C@H](C=O)C[C@@H]1CCNC1=O [MPI101],–,> 5000 nM,20 nM
CC1(C)[C@@H]2[C@@H](C(=O)N[C@H](C=O)C[C@@H]3CCNC3=O)N(C(=O)OCc3cccnc3)C[C@@H]21 [MPI102],–,> 5000 nM,28 nM
CC1(C)[C@@H]2[C@@H](C(=O)N[C@H](C#N)C[C@@H]3CCNC3=O)N(C(=O)OCc3cccnc3)C[C@@H]21 [MPI103],–,> 5000 nM,28 nM
CC(C)(C)C[C@H](NC(=O)[C@@H]1CC[C@@H]1c1ccccc1)C(=O)N[C@H](C=O)C[C@@H]1CCNC1=O [MPI104],–,> 5000 nM,79 nM
CC(C)(C)C[C@H](NC(=O)N1CC[C@@H]1c1ccccc1)C(=O)N[C@H](C=O)C[C@@H]1CCNC1=O [MPI105],–,> 5000 nM,39 nM
CC1(C)[C@@H]2[C@@H](C(=O)N[C@H](C#N)C[C@@H]3CCNC3=O)N(C(=O)[C@@H](NC(=O)C(F)(F)F)c3ccc(Cl)cc3)C[C@@H]21 [MPI106],–,> 5000 nM,–
CC1(C)[C@@H]2[C@@H](C(=O)N[C@H](C#N)C[C@@H]3CCNC3=O)N(C(=O)[C@@H](NC(=O)C(F)(F)F)c3ccc(Cl)c(Cl)c3)C[C@@H]21 [MPI108],–,> 5000 nM,–
